Earlier results on 1 compound are cited in patent US20060246141A1, “Nanoparticulate lipase inhibitor formulations” (Elan Pharma International, Limited, priority 2005, published 2006).

Structures are written as SMILES. Like-named read-outs stand apart in the source and are kept apart here.

Series [1] relates to gastric and pancreatic lipases. To be noted: recommended therapeutic dose of 120 mg three times a day.
The conditions of series [2]: physiological pH range.

On to `CCCCCCCCCCCC(CC1OC(=O)[C@H]1CCCCCC)OC(=O)C(CC(C)C)NC=O` (stereo in doubt) [Orlistat, (S)-2-formylamino-4-methyl-pentanoic acid (S)-1-[[(2S, 3S)-3-hexyl-4-oxo-2-oxetanyl]methyl]-dodecyl ester], for which the “Inhibition of dietary fat absorption” value in series [1] is “approximately 30%”. Moreover, the Solubility entry (in chloroform) was “freely soluble”; the Solubility result (in methanol and ethanol) is listed as “very soluble”; the Solubility entry (in water) is listed as “practically insoluble”. Moreover, the pKa result in series [2] was “no pKa within the physiological pH range”.
